# In publication PMC7156724, “Potent BRD4 inhibitor suppresses cancer cell-macrophage interaction” (Nature Communications, 2020):
# “And” between values parts separate entries of the source, which are not always exact repeats. Equal values may be shown once. Read-outs that look alike come from different tables or passages of the source.
# Experiments:
# TAMs = experiment: 3D Matrigel culture of TAMs, direct treatment; assay type: cell-based, mouse
# Experimental: CD45^+CD11b^+F4/80^+ TAMs were isolated from peritoneal metastasis of A2780 tumor-bearing mice and cultured in RPMI-1640 supplemented with 10% FBS, 1% penicillin/streptomycin, and 0–50 ng/ml CSF1 (R&D Systems) as indicated according to standard protocols. In the cancer cell-macrophage co-culture experiments, CSF1 was not added. In the transwell (Corning, pore size, 0.4 μm) co-culture experiments, tumor cells were placed into the upper chamber, and TAMs were seeded into the lower chamber.
# Single clone spheroids were generated by culturing A2780, ES-2, H526 and MDA-MB231 cells for 16 h as a hanging drop over a humidified plate in a CO2 incubator in their corresponding complete media. […] The relative spheroid sizes were measured with ImageJ version 1.52s using the 15 representative spheroids. […]
# with anti-CD45, CD11b and CD206 followed by FACS analysis. Shown are representative FACS plots (c) and quantification of the percentage of CD11b+CD206+ cells (d). Data are presented as mean ± SEM from 5 different mice. p values were calculated using two-tailed, unpaired t tests. **, p<0.01; ***, p<0.001. […] Quantification of spheroid volumes (f). Data are presented as mean ± SEM from 15 independent experiments. p values were calculated using two-tailed, unpaired t tests. **, p<0.01. […]
# [1] = In vivo pharmacokinetics study, rat; set-up: species or system SD rat
# Experimental: 4–6 weeks old female BALB/c nude mice were used for most experiments, with the exception of 6–8 weeks old female C57BL/6 mice were used for B16F10 experiments, and 6–8 weeks old male BALB/c nude mice and SD rats were used for pharmacokinetic experiments. All animals were purchased from Shanghai SIPPR-Bk Lab Animal Co., Ltd. All animals were housed under a regimen of 12 h light/12 h dark cycles and specific pathogen-free conditions. 5×10^6 NCI-H526, ES-2, MDA-MB231, A2780, A375, B16F10, and TMD-8 cells (0.1 ml) were injected subcutaneously into female nude mice. The melanoma patient-derived xenograft model was derived from a human melanoma sample (BRAF, NARS and NF1 wild type, and p53 mutant) removed from a patient in Xiangya Hospital. Surgically removed tumor fragments were implanted subcutaneously into female NSG mice. When the tumors grew to ~1000 mm^3, they were harvested and cryopreserved or immediately re-implanted for expansion or experiments. Mouse body weight and tumor sizes were measured every 3 days. Once the tumors grew to 150–200 mm^3, mice were treated with the compounds as described in the Figures. 1 × 10^6 A2780 cells (1 ml) were injected into the abdominal cavity of nude mice. Ascitic volume and tumor weight were measured by an electronic balance. All the procedures were evaluated and approved by the Institutional Animal Care and Use Committee of Central South University and Yale University.
# Supplementary Figure 7. Pharmacokinetic profile of NHWD-870 using mouse and rat models.
# (a,b) Plasma concentrations of NHWD-870 in healthy (a) mouse and (b) rat after intravenous (IV, 1.75 mg/kg for mouse and 1 mg/kg for rat) and oral (PO, 5 mg/kg) administration. Values shown on the right panels are mean ± SEM from 3 different animals. (c,d) Mean concentrations of NHWD-870 in the lungs (c) and tumors (d) of H526 xenograft model at the indicated hours after oral administration of 3 mg/kg NHWD-870 and BMS-98615821 on day 21. These mice were administrated the indicated drug daily for 21 days. Data are represented as mean ± SEM of 3 independent experiments. Source data are provided as a Source Data file. […]
# 9. In vivo pharmacokinetics study. Mouse and SD rat models were used to evaluate pharmacokinetic property of NHWD-870. NHWD-870 was administrated […]
# Concentration of drugs in plasma, lung and tumor tissues were measured for the indicated time. […]
# [2] = male, SD, plasma, iv, 1 mg/kg, IV 1 mg/kg
structure (smiles),measurement,setting,value
Cc1nnn(C)c1-c1cnc2c3c4cnn(C)c4ccc3n([C@H](c3ccccc3)C3CCOCC3)c2c1 [NHWD-870],fold inhibition of colony size of macrophages,TAMs,< 2 fold
same,decrease of the ability of TAMs to form colonies in a 3D culture system,TAMs; 100 nM,< 50%
same,AUCExtra,[1]; IV 1 mg/kg,2.21±0.73%
same,AUMCExtra,[1]; IV 1 mg/kg,11.5±3.025%
same,Cl,"[1]; IV 1 mg/kg, 1 mg/kg",50 mL/min/kg
same,T1/2,"[1]; IV 1 mg/kg, 1 mg/kg",0.9 h
same,Plasma Conc.,"[1]; IV bolus, 5 min, individual animals, LLOQ 1.00 ng/mL",362 ng/mL and 355 ng/mL
same,Plasma Conc.,"[1]; IV bolus, 0.25 h, individual animals, LLOQ 1.00 ng/mL",274 ng/mL and 247 ng/mL
same,Plasma Conc.,"[1]; IV bolus, 0.5 h, individual animals, LLOQ 1.00 ng/mL",208 ng/mL and 167 ng/mL
same,Plasma Conc.,"[1]; IV bolus, 1 h, individual animals, LLOQ 1.00 ng/mL",98.1 ng/mL and 112 ng/mL
same,Plasma Conc.,"[1]; IV bolus, 2 h, individual animals, LLOQ 1.00 ng/mL",48.1 ng/mL and 40.3 ng/mL
same,Plasma Conc.,"[1]; IV bolus, 4 h, individual animals, LLOQ 1.00 ng/mL",8.88 ng/mL and 8.14 ng/mL
same,Plasma Conc.,"[1]; IV bolus, 8 h, individual animals, LLOQ 1.00 ng/mL",BQL
same,Plasma Conc.,"[1]; IV bolus, 24 h, individual animals, LLOQ 1.00 ng/mL",BQL
same,AUCExtra,[1]; PO 5 mg/kg,3.97±1.15%
same,AUMCExtra,[1]; PO 5 mg/kg,11.8±2.615%
same,Tlast,[1]; PO 5 mg/kg,8 h
same,Plasma Conc.,"[1]; PO, 0.25 h, individual animals, LLOQ 1.00 ng/mL",18.8 ng/mL and 13.3 ng/mL
same,Plasma Conc.,"[1]; PO, 0.5 h, individual animals, LLOQ 1.00 ng/mL",58.3 ng/mL and 33.9 ng/mL
same,Plasma Conc.,"[1]; PO, 1 h, individual animals, LLOQ 1.00 ng/mL",117 ng/mL and 106 ng/mL and 54.6 ng/mL
same,Plasma Conc.,"[1]; PO, 2 h, individual animals, LLOQ 1.00 ng/mL",111 ng/mL and 73.5 ng/mL
same,Plasma Conc.,"[1]; PO, 4 h, individual animals, LLOQ 1.00 ng/mL",48.1 ng/mL and 45.9 ng/mL
same,Plasma Conc.,"[1]; PO, 6 h, individual animals, LLOQ 1.00 ng/mL",20.2 ng/mL and 15.9 ng/mL and 50.5 ng/mL
same,Plasma Conc.,"[1]; PO, 8 h, individual animals, LLOQ 1.00 ng/mL",6.96 ng/mL and 4.35 ng/mL and 9.56 ng/mL
same,Plasma Conc.,"[1]; PO, 24 h, individual animals, LLOQ 1.00 ng/mL",BQL
same,AUC(0-inf),"[1]; male, SD, plasma, IV 1 mg/kg",331 ± 6.45 ng·h/mL
same,AUC(0-t),"[1]; male, SD, plasma, IV 1 mg/kg",323 ± 5.55 ng·h/mL
same,C0,"[1]; male, SD, plasma, IV 1 mg/kg",441 ± 17.9 ng/mL
same,MRT inf,"[1]; male, SD, plasma, IV 1 mg/kg",1.08 ± 0.021 h
same,MRT last,"[1]; male, SD, plasma, IV 1 mg/kg",0.98 ± 0.045 h
same,Vd,"[1]; male, SD, plasma, IV 1 mg/kg, read-out: Vdss",3.27 ± 0.0925 L/kg
same,AUC(0-inf),"[1]; male, SD, plasma, PO 5 mg/kg",398 ± 9.15 ng·h/mL
same,AUC(0-t),"[1]; male, SD, plasma, PO 5 mg/kg",382 ± 12.6 ng·h/mL
same,Cmax,"[1]; male, SD, plasma, PO 5 mg/kg",101 ± 11.8 ng/mL
same,MRT inf,"[1]; male, SD, plasma, PO 5 mg/kg",3.28 ± 0.33 h
same,MRT last,"[1]; male, SD, plasma, PO 5 mg/kg",3 ± 0.256 h
same,Tmax,"[1]; male, SD, plasma, PO 5 mg/kg",1.67 ± 0.288 h
same,bioavailability,"[1]; male, SD, plasma, PO 5 mg/kg, calculated using AUCinf with nominal dose",24%
same,clearance,[1]; [2],50.4 ± 0.965 mL/min/kg
same,half-life,[1]; [2],0.92 ± 0.0805 h
same,concentration at 5 min,"[1]; male, SD, plasma, iv, 1 mg/kg, IV bolus, 5 min, individual animals, LLOQ 1.00 ng/mL, read-out: Plasma Conc.",392 ng/mL
same,concentration at 0.25 h,"[1]; male, SD, plasma, iv, 1 mg/kg, IV bolus, 0.25 h, individual animals, LLOQ 1.00 ng/mL, read-out: Plasma Conc.",259 ng/mL
same,concentration at 0.5 h,"[1]; male, SD, plasma, iv, 1 mg/kg, IV bolus, 0.5 h, individual animals, LLOQ 1.00 ng/mL, read-out: Plasma Conc.",168 ng/mL
same,concentration at 1 h,"[1]; male, SD, plasma, iv, 1 mg/kg, IV bolus, 1 h, individual animals, LLOQ 1.00 ng/mL, read-out: Plasma Conc.",96.1 ng/mL
same,concentration at 2 h,"[1]; male, SD, plasma, iv, 1 mg/kg, IV bolus, 2 h, individual animals, LLOQ 1.00 ng/mL, read-out: Plasma Conc.",39 ng/mL
same,concentration at 4 h,"[1]; male, SD, plasma, iv, 1 mg/kg, IV bolus, 4 h, individual animals, LLOQ 1.00 ng/mL, read-out: Plasma Conc.",8.15 ng/mL
same,concentration at 8 h,"[1]; male, SD, plasma, iv, 1 mg/kg, IV bolus, 8 h, individual animals, LLOQ 1.00 ng/mL, read-out: Plasma Conc.",1.09 ng/mL
same,half-life,"[1]; male, SD, plasma, po, 5 mg/kg, PO 5 mg/kg",1.48 ± 0.155 h
same,concentration at 0.25 h,"[1]; male, SD, plasma, po, 5 mg/kg, PO, 0.25 h, individual animals, LLOQ 1.00 ng/mL, read-out: Plasma Conc.",18.2 ng/mL
same,concentration at 0.5 h,"[1]; male, SD, plasma, po, 5 mg/kg, PO, 0.5 h, individual animals, LLOQ 1.00 ng/mL, read-out: Plasma Conc.",56.8 ng/mL
same,concentration at 2 h,"[1]; male, SD, plasma, po, 5 mg/kg, PO, 2 h, individual animals, LLOQ 1.00 ng/mL, read-out: Plasma Conc.",110 ng/mL
same,concentration at 4 h,"[1]; male, SD, plasma, po, 5 mg/kg, PO, 4 h, individual animals, LLOQ 1.00 ng/mL, read-out: Plasma Conc.",45.5 ng/mL
